Earlier results on 1 molecule are cited in US20120172289A1, “MULTIFUNCTIONAL GLYCOPEPTIDE ANTIBIOTIC DERIVATIVES FOR FLUORESCENT IMAGING AND PHOTOACTIVE ANTIMICROBIAL THERAPY” (NANYANG TECHNOLOGICAL UNIVERSITY, priority 2010, published 2012).

For the data set, the system named is D-Ala-D-Lac. The settings on record: mutation of peptidoglycan sequence in VRE.

The structures appear in SMILES notation.

With `CN[C@H](CC(C)C)C(=O)N[C@H]1C(=O)N[C@@H](CC(N)=O)C(=O)N[C@H]2C(=O)N[C@H]3C(=O)N[C@H](C(=O)N[C@H](C(=O)O)c4cc(O)cc(O)c4-c4cc3ccc4O)[C@H](O)c3ccc(c(Cl)c3)Oc3cc2cc(c3O[C@@H]2O[C@H](CO)[C@@H](O)[C@H](O)[C@H]2O[C@H]2C[C@](C)(N)[C@H](O)[C@H](C)O2)Oc2ccc(cc2Cl)[C@H]1O` [Vancomycin], the “decrease of binding affinity, D-Ala-D-Ala to D-Ala-D-Lac” value is given as ~10^3 times.
